Assay type in all cases: biochemical
In one test the target is h4D7 (Homo sapiens, UniProt Q08499). Kind of test: In-vitro assay for PDE4 enzymes, real-time enzyme-coupled spectrophotometric assay (Table 3). As to the method:
(§1) In-vitro assay for PDE4 enzymes. The in-vitro activity of PDE4 enzymes and the in-vitro potency of therapeutic agents described in the present invention was measured using a real-time, enzyme-coupled spectrophotometric assay. By using three different coupling enzymes, the product of the PDE4 reaction is coupled to the oxidation of the reduced form β-nicotinamide adenine dinucleotide (NADH), which dissipation can be monitored spectrophotmetrically at […]. Assay description. Buffer A containing 50 mM Tris, pH 8.0, 16 mM MgCl2 and 80 mM KCl is prepared and stored at room temperature. Buffer B containing 50 mM Tris, pH 8.0 is prepared and stored at toom temperature. Stock solutions of the following reagents are prepared in Buffer B and stored at −20° C.: Adenosine-5′-triphosphate (ATP), cyclic adenosine-5′-monophosphate (cAMP), phosphoenolpyruvate (PEP) and NADH. An assay mix is prepared by mixing Buffer A, […] (TCEP), ATP, PEP, NADH, myokinase (MK), pyruvate kinase (PK), lactate dehydroganese (LDH) and PDE4 to a final volume of 20 mL, which is enough for a single 96-well assay plate. Assay mix (180 μL) and test article (10 μL) in 1:1 DMSO/H2O mixture is pre-incubated at room temperature for 10 min. The enzymatic reaction is initiated by addition of cAMP (10 μL). Final concentration of all components in the assay (200 μL/well) are as follows: 10 mM MgCl2, 50 mM KCl, 5 mM TCEP, 2.5% DMSO, 0.4 mM NADH, 1 mM PEP, 0.04 mM ATP, 5 units MK, 1 unit PK, 1 unit LDH and appropriate amount of PDE4. Reaction progress curves are monitored in a plate reader capable of measuring light absorbance at 340 nm. A decrease in light absorbance at 340 nm is due to oxidation of NADH. Positive controls containing no test article and negative controls containing no test article and no cAMP are included on every assay plate. Reaction rates are determined from the slopes of the linear portions of the progress curves. All data is percent normalized with respect to controls and presented as percent inhibition.

Another test concerns the target human PDE4B isozyme (Homo sapiens, UniProt Q07343). In words: IC50 for human PDE4B isozyme (Table 5). To be noted: read-out: IC50 for human PDE4B isozyme, hPDE4B. The procedure: as §1
The next test addresses human PDE4D isozyme (Homo sapiens, UniProt Q08499). Kind of test: IC50 for human PDE4D isozyme (Table 4). To be noted: read-out: IC50 for human PDE4D isozyme, hPDE4D. The procedure:
as §1

From patent US8883833B2, “Substituted benzoazole PDE4 inhibitors for treating inflammatory, cardiovascular and CNS disorders” (Decode Genetics EHF, priority 2007, dated 2014) come the findings set out here.

h4D7, sequence (Q08499 1-748 isoform Q08499-11): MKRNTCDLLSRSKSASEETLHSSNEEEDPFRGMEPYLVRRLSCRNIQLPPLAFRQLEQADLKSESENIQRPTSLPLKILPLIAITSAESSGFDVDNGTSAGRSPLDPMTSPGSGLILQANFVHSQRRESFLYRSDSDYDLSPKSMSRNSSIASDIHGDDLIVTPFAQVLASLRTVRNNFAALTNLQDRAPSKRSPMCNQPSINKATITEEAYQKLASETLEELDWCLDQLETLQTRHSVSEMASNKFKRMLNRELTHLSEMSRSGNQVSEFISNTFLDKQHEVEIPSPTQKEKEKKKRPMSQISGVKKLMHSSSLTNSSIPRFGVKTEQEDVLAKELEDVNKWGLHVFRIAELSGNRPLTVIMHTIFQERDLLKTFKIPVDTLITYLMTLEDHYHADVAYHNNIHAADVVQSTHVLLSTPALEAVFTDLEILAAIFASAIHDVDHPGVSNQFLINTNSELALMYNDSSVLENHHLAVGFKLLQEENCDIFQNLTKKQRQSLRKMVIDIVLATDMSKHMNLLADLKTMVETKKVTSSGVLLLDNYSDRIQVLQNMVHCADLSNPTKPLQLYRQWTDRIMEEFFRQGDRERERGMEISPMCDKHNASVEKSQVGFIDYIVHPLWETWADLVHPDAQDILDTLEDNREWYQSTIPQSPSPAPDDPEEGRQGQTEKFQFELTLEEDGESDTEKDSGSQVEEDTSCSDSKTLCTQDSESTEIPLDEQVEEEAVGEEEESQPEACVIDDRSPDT
human PDE4D isozyme, sequence (Q08499 whole entry): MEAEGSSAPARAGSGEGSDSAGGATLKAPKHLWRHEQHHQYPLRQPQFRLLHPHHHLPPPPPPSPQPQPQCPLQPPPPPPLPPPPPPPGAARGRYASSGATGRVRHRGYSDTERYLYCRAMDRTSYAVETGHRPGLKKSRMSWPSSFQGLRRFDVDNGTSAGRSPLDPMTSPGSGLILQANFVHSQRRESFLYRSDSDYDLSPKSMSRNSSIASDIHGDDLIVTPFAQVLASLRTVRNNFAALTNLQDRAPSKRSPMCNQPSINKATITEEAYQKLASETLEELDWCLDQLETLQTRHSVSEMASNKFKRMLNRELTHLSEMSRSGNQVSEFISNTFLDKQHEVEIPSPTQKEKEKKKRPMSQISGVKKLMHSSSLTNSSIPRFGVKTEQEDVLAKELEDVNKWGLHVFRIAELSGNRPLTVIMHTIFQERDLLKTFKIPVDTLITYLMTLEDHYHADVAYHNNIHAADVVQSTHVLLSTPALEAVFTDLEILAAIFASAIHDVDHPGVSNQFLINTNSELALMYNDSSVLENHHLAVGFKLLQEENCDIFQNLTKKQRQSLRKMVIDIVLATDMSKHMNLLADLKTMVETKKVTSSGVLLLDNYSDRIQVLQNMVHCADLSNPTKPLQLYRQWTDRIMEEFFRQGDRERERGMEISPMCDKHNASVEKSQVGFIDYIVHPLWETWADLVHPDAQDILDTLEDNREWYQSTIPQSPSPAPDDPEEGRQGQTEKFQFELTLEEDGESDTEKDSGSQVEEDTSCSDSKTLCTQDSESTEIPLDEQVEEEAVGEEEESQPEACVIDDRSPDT
human PDE4B isozyme, sequence (Q07343 whole entry): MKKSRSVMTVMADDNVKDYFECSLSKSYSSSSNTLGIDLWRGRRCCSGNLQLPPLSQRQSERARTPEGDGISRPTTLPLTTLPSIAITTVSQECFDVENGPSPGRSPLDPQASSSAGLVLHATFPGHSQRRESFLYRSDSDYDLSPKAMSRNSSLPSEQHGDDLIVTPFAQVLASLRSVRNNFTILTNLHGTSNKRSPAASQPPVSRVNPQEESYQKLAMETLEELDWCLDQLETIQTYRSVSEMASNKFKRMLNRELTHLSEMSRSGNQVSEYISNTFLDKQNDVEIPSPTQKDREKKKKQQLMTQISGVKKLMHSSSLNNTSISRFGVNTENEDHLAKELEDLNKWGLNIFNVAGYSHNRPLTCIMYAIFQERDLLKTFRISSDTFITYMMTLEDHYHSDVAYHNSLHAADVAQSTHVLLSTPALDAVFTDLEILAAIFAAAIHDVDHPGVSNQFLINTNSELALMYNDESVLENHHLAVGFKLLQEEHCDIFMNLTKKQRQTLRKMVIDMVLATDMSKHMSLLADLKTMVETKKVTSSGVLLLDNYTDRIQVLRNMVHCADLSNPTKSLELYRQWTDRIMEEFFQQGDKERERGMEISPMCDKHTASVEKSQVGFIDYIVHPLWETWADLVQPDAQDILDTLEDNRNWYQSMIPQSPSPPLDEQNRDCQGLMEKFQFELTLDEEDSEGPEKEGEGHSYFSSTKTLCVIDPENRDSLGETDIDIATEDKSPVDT

In the case of `NC(=O)NC1CCN(Cc2cc3scnc3c(-c3cccc(Cl)c3)c2F)CC1` [Example 46, [1-[4-(3-Chloro-phenyl)-5-fluoro-benzothiazol-6-ylmethyl]-piperidin-4-yl]-urea], the IC50 at h4D7 was in the range of 1 to 10 µM.

As for `CCOC(=O)Nc1ccc(Cc2cc3scnc3c(-c3cccc(Cl)c3)c2F)cn1` [BA-40, {5-[4-(3-chloro-phenyl)-5-fluoro-benzothiazol-6-ylmethyl]-pyridin-2-yl}-carbamic acid ethyl ester], the IC50 on human PDE4B isozyme and at human PDE4D isozyme was below 5 µM each time.

Regarding `CS(=O)(=O)Nc1ccc(Cc2cc3sc(N)nc3c(-c3cccc(Cl)c3)c2F)cc1` [BA-19, N-{4-[2-amino-4-(3-chloro-phenyl)-5-fluoro-benzothiazol-6-ylmethyl]-phenyl}-methanesulfonamide], the IC50 at human PDE4B isozyme is 5 to 20 µM; at human PDE4D isozyme, below 5 µM.

For `CS(=O)(=O)Nc1ccc(Cc2cc(-c3cccc(Cl)c3)c3nc(N)sc3c2)cc1` [BA-18, N-{4-[2-Amino-4-(3-chloro-phenyl)-benzothiazol-6-ylmethyl]-phenyl}-methanesulfonamide], the IC50 is 5 to 20 µM at human PDE4B isozyme and below 5 µM on human PDE4D isozyme.

For the compound `CN(C)c1ccc(Cc2cc(-c3cccc(Cl)c3)c3ncsc3c2)cn1` [BA-58, {5-[4-(3-chloro-phenyl)-benzothiazol-6-ylmethyl]-pyridin-2-yl}-dimethyl-amine], the IC50 on human PDE4B isozyme and on human PDE4D isozyme was below 5 µM each time.

As for `Cc1nc2c(-c3cccc(Cl)c3)cc(Cc3ccc(NC(N)=O)cc3)cc2o1` [BA-24, N-(4-{[4-(3-chlorophenyl)-2-methyl-1,3-benzoxazol-6-yl]methyl}phenyl)urea], the IC50 on human PDE4B isozyme and at human PDE4D isozyme was below 5 µM each time.

At h4D7, `Nc1nc2c(-c3ccc4c(c3)OCO4)cc(C(O)c3ccc(F)cc3)cc2s1` (centres unmarked) [Example 5, (2-Amino-4-benzo[1,3]dioxol-5-yl-benzothiazol-6-yl)-(4-fluoro-phenyl)-methanol] showed an IC50 of 1 to 10 µM.

Consider `CCOC(=O)N1CCN(Cc2cc3scnc3c(-c3cccc(Cl)c3)c2F)CC1` [BA-49, 4-[4-(3-Chloro-phenyl)-5-fluoro-benzothiazol-6-ylmethyl]-piperazine-1-carboxylic acid ethyl ester], for which the IC50 at human PDE4B isozyme and on human PDE4D isozyme was below 5 µM throughout.

Regarding `CCNC(=O)Nc1ccc(Cc2cc(-c3cccc(Cl)c3)c3nc(C)sc3c2)cn1` [BA-67, 1-{5-[4-(3-chloro-phenyl)-2-methyl-benzothiazol-6-ylmethyl]-pyridin-2-yl}-3-ethyl-urea], the IC50 on human PDE4B isozyme and on human PDE4D isozyme was below 5 µM throughout.

Consider `Nc1nc2c(-c3cccc(C(F)(F)F)c3)cc(Cc3ccc(F)cc3)cc2s1` [BA-07, 6-(4-Fluoro-benzyl)-4-(3-trifluoromethyl-phenyl)-benzothiazol-2-ylamine], for which the IC50 at human PDE4B isozyme and at human PDE4D isozyme was below 5 µM in each case.

As for `Oc1cccc(Cc2cc3scnc3c(-c3cccc(Cl)c3)c2F)c1` [BA-39, 3-[4-(3-chloro-phenyl)-5-fluoro-benzothiazol-6-ylmethyl]-phenol], the IC50 on human PDE4B isozyme and at human PDE4D isozyme was below 5 µM in each case.

On to `Fc1c(CN2CCOCC2)cc2scnc2c1-c1cccc(Cl)c1` [BA-43, 4-(3-Chloro-phenyl)-5-fluoro-6-morpholin-4-ylmethyl-benzothiazole], for which the concentration for half-maximal inhibition (IC50) at human PDE4B isozyme and on human PDE4D isozyme was below 5 µM in each case.

For the compound `NC(=O)[C@H]1CCN1c1ccc(Cc2cc3scnc3c(-c3cccc(Cl)c3)c2F)cn1` [BA-75, (R)-1-{5-[4-(3-chloro-phenyl)-5-fluoro-benzothiazol-6-ylmethyl]-pyridin-2-yl}-azetidine-2-carboxylic acid amide], the IC50 at human PDE4B isozyme and on human PDE4D isozyme was below 5 µM each time.

With `Cn1nccc1Cc1cc(-c2ccc3c(c2)OCO3)c2nc(N)sc2c1` [BA-08, 4-Benzo[1,3]dioxol-5-yl-6-(2-methyl-2H-pyrazol-3-ylmethyl)-benzothiazol-2-ylamine], the IC50 at human PDE4B isozyme and at human PDE4D isozyme was below 5 µM throughout.

At h4D7, `Nc1ccc(Cc2cc3sc(N)nc3c(-c3cccc(Cl)c3)c2F)cc1` [Example 16, 6-(4-amino-benzyl)-4-(3-chloro-phenyl)-5-fluoro-benzothiazol-2-ylamine] registered a concentration for half-maximal inhibition (IC50) below 1 µM.

Take `NC(=O)Nc1ccc(Cc2cc(-c3cccc(Cl)c3)c3nc(N)sc3c2)cc1` [BA-27, {4-[2-Amino-4-(3-chloro-phenyl)-benzothiazol-6-ylmethyl]-phenyl}-urea]: the IC50 at human PDE4B isozyme and on human PDE4D isozyme was below 5 µM each time.

With `NC(=O)[C@@H]1CCN1c1ccc(Cc2cc3scnc3c(-c3cccc(Cl)c3)c2F)cn1` [BA-74, (S)-1-{5-[4-(3-chloro-phenyl)-5-fluoro-benzothiazol-6-ylmethyl]-pyridin-2-yl}-azetidine-2-carboxylic acid amide], the IC50 on human PDE4B isozyme and at human PDE4D isozyme was below 5 µM throughout.

Take `O=C1CCCN1Cc1cc2scnc2c(-c2cccc(Cl)c2)c1F` [BA-54, 1-[4-(3-Chloro-phenyl)-5-fluoro-benzothiazol-6-ylmethyl]-pyrrolidin-2-one]: the IC50 at human PDE4B isozyme and on human PDE4D isozyme was below 5 µM each time.

On to `Nc1ccc(Cc2cc3sc(N)nc3c(-c3cccc([N+](=O)[O-])c3)c2O)cc1` [BA-15, 2-Amino-6-(4-amino-benzyl)-4-(3-nitro-phenyl)-benzothiazol-5-ol], for which the IC50 at human PDE4B isozyme and on human PDE4D isozyme was below 5 µM throughout.

With `Nc1nc2c(-c3cccc([N+](=O)[O-])c3)cc(Cc3ccc(F)cc3)cc2s1` [BA-01, 6-(4-fluorobenzyl)-4-(3-nitrophenyl)-benzothiazol-2-yl amine], the IC50 at human PDE4B isozyme and at human PDE4D isozyme was below 5 µM throughout.

Take `Nc1nc2c(-c3ccc4c(c3)OCO4)nc(Cc3ccc(F)cc3)nc2s1` [BA-11, 7-Benzo[1,3]dioxol-5-yl-5-(4-fluorobenzyl)-thiazolo[5,4-d]pyrimidin-2-ylamine]: the half-inhibitory concentration (IC50) on human PDE4B isozyme and on human PDE4D isozyme was below 5 µM each time.

`O=C1CN(Cc2cc3scnc3c(-c3cccc(Cl)c3)c2F)CCN1` [BA-71, 4-[4-(3-Chloro-phenyl)-5-fluoro-benzothiazol-6-ylmethyl]-piperazin-2-one]: the IC50 on human PDE4B isozyme and at human PDE4D isozyme was below 5 µM throughout.

As for `NC(=O)NC1CCN(Cc2cc3scnc3c(-c3cccc(Cl)c3)c2F)CC1` [BA-46, [1-[4-(3-Chloro-phenyl)-5-fluoro-benzothiazol-6-ylmethyl]-piperidin-4-yl]-urea], the half-maximal inhibitory concentration (IC50) was 5 to 20 µM on human PDE4B isozyme and below 5 µM on human PDE4D isozyme.

As for `Nc1nc2c(-c3ccc4c(c3)OCO4)cc(C(O)c3ccc(F)cc3)cc2s1` (centres unmarked) [BA-05, (2-Amino-4-benzo[1,3]dioxol-5-yl-benzothiazol-6-yl)-(4-fluoro-phenyl)-methanol], the IC50 on human PDE4B isozyme and at human PDE4D isozyme was below 5 µM each time.

Consider `NC(=O)Nc1ccc(Cc2cc(-c3cccc(Cl)c3)c3ncsc3c2)cc1` [BA-28, {4-[4-(3-Chloro-phenyl)-benzothiazol-6-ylmethyl]-phenyl}-urea], for which the IC50 on human PDE4B isozyme and at human PDE4D isozyme was below 5 µM in each case.

For `Nc1ccc(Cc2cc3sc(N)nc3c(-c3cccc(Cl)c3)c2F)cc1` [BA-16, 6-(4-amino-benzyl)-4-(3-chloro-phenyl)-5-fluoro-benzothiazol-2-ylamine], the IC50 at human PDE4B isozyme and at human PDE4D isozyme was below 5 µM each time.

As to `CS(=O)(=O)Nc1ccc(Cc2cc(-c3cccc(Cl)c3)c3nc(N)oc3c2)cc1` [BA-20, N-{4-[2-Amino-4-(3-chloro-phenyl)-benzooxazol-6-ylmethyl]-phenyl}-methanesulfonamide], the IC50 at human PDE4B isozyme and on human PDE4D isozyme was below 5 µM in each case.

As for `Nc1nc2c(-c3ccc4nonc4c3)cc(Cc3ccc(F)cc3)cc2s1` [BA-03, 4-Benzol[1,2,5]oxadiazol-5-yl-6-(4-fluoro-benzyl)-benzothiazol-2-yl amine], the IC50 at human PDE4B isozyme and on human PDE4D isozyme was below 5 µM each time.

For the compound `CC(=O)N1CCN(Cc2cc3scnc3c(-c3cccc(Cl)c3)c2F)CC1` [BA-44, 1-{4-[4-(3-Chloro-phenyl)-5-fluoro-benzothiazol-6-ylmethyl]-piperazin-1-yl}-ethanone], the IC50 on human PDE4B isozyme was 5 to 20 µM; on human PDE4D isozyme, below 5 µM.

Take `CSc1cccc(-c2cc(Cn3cccn3)cc3sc(N)nc23)c1` [BA-14, 4-(3-Methylsulfanyl-phenyl)-6-pyrazol-1-ylmethyl-benzothiazol-2-ylamine]: the IC50 on human PDE4B isozyme and on human PDE4D isozyme was below 5 µM throughout.

`COc1ccc(Cc2cc3scnc3c(-c3cccc(Cl)c3)c2F)cn1` [BA-38, 4-(3-chloro-phenyl)-5-fluoro-6-(6-methoxy-pyridin-3-ylmethyl)-benzothiazole]: the 50% inhibitory concentration (IC50) at human PDE4B isozyme and on human PDE4D isozyme was below 5 µM in each case.

In general, IC50 refers to the concentration that gives 50% inhibition.
